Assay results reported in patent US8957077B2, “Pyrazolopyrimidine PDE 10 inhibitors” (Merck Sharp & Dohme Corp., priority 2010, dated 2015).

Molecular target: human PDE10A2 (Homo sapiens (Human), UniProt Q9Y233)
Assay: PDE10 fluorescence polarization (IMAP FP) inhibition assay
Type: biochemical
Details: human PDE10 enzyme, FAM-labeled cAMP substrate, read-out: PDE10A Ki
Method: The activity of the compounds in accordance with the present invention as PDE10 inhibitors may be readily determined without undue experimentation using a fluorescence polarization (FP) methodology that is well known in the art (Huang, W., et al.,J. Biomol Screen, 2002, 7: 215).
In a typical experiment the PDE10 inhibitory activity of the compounds of the present invention was determined in accordance with the following experimental method. PDE10A2 was amplified from human fetal brain cDNA (Clontech, Mountain View, Calif.) using a forward primer corresponding to nucleotides 56-77 of human PDE10A2 (Accession No. AF127480, Genbank Identifier 4894716), containing a Kozak consensus sequence, and a reverse primer corresponding to nucleotides 2406-2413 of human PDE10A2 (Accession No. AF127480, Genbank Identifier 4894716). Amplification with Easy-A polymerase (Stratagene, La Jolla, Calif.) was 95° C. for 2 minutes followed by thirty three cycles of 95° C. for 40 seconds, 55° C. for 30 seconds, and 72° C. for 2 minutes 48 seconds. Final extension was 72° C. for 7 minutes. The PCR product was TA cloned into pcDNA3.2-TOPO (Invitrogen, Carlsbad, Calif.) according to standard protocol. AD293 cells with 70-80% confluency were transiently transfected with human PDE10A2/pcDNA3.2-TOPO using Lipofectamine 2000 according to manufacturer specifications (Invitrogen, Carlsbad, Calif.). Cells were harvested 48 hours post-transfection and lysed by sonication (setting 3, 10×5 sec pulses) in a buffer containing 20 mM HEPES, 1 mM EDTA and protease inhibitor cocktail (Roche). Lysate was collected by centrifugation at 75,000×g for 20 minutes. Supernatant containing the cytoplasmic fraction was used for evaluation of PDE10A2 activity. The fluorescence polarization assay for cyclic nucleotide phosphodiesterases was performed using an IMAP® FP kit supplied by Molecular Devices, Sunnyvale, Calif. (product # R8139). IMAP® technology has been applied previously to phosphodiesterase assays (Huang, W., et al., J. Biomol Screen, 2002, 7: 215). Assays were performed at room temperature in 384-well microtiter plates with an incubation volume of 20.2 μL. Solutions of test compounds were prepared in DMSO and serially diluted with DMSO to yield 8 μL of each of 10 solutions differing by 3-fold in concentration, at 32 serial dilutions per plate. 100% inhibition is determined using a known PDE10 inhibitor, which can be any compound that is present at 5,000 times its Ki value in the assay described as follows, such as papaverine (see Siuciak, et al. Neuropharmacology (2006) 51:386-396; Becker, et al. Behav Brain Res (2008) 186(2):155-60; Threlfell, et al., J Pharmacol Exp Ther (2009) 328(3):785-795), 2-{-4-[pyridin-4-yl-1-(2,2,2-trifluoroethyl)-1H-pyrazol-3-yl]phenoxymethyl}quinoline succinic acid or 2-[4-(1-methyl-4-pyridin-4-yl-1H-pyrazol-3-yl)-phenoxymethyl]quinoline succinic acid (see Schmidt, et al. J Pharmacol Exp Ther (2008) 325:681-690; Threlfell, et al., J Pharmacol Exp Ther (2009) 328(3): 785-795). 0% of inhibition is determined by using DMSO (1% final concentrations).
A Labcyte Echo 555 (Labcyte, Sunnyvale, Calif.) is used to dispense […] from each well of the titration plate to the 384 well assay plate. A solution of enzyme ( 1/1600 dilution from aliquots; sufficient to produce 20% substrate conversion) and a separate solution of FAM-labeled cAMP PDE from Molecular Devices (product # R7506), at a final concentration of 50 nM are made in the assay buffer (10 mM Tris HCl, pH 7.2, 10 mM MgCl2, 0.05% NaN3 0.01% Tween-20, and 1 mM DTT). The enzyme and the substrate are then added to the assay plates in two consecutive additions of 10 μL, and then shaken to mix. The reaction is allowed to proceed at room temperature for 30 minutes. A binding solution is then made from the kit components, comprised of 80% Solution A, 20% Solution B and binding reagent at a volume of 1/600 the total binding solution. […]

Sequence of human PDE10A2 (Q9Y233 267-1055): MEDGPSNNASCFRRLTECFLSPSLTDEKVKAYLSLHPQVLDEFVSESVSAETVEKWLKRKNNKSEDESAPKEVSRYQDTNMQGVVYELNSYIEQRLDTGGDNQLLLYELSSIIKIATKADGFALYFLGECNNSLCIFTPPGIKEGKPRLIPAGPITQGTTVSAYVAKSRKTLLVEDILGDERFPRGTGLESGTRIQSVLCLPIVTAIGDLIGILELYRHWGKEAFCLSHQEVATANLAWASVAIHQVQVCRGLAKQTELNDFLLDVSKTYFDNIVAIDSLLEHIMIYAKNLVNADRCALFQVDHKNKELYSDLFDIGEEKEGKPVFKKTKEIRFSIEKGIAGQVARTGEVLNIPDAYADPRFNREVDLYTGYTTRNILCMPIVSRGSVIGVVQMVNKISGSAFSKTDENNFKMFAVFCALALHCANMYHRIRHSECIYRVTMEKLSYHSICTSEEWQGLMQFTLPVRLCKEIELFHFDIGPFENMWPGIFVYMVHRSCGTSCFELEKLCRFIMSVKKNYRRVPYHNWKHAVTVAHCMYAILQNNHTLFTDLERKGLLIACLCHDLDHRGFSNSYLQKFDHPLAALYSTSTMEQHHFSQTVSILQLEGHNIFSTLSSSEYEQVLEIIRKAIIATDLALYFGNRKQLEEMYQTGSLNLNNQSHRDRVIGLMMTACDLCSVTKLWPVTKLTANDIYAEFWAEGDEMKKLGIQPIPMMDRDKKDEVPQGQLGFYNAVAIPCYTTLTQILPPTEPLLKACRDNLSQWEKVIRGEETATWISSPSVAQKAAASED

Ki [nM]	SMILES
20	Cc1ccc([C@H]2C[C@@H]2COc2cc(Oc3ccc(C)nc3)n3nccc3n2)nc1 [Compound 1-22, 5-{[(1S,2S)-2-(5-methylpyridin-2-yl)cyclopropyl]methoxy}-7-[(6-methylpyridin-3-yl)oxy]pyrazolo[1,5-a] pyrimidine]
2.52	Cc1c(OC[C@H]2C[C@@H]2c2ccccn2)nc2ccnn2c1NCc1cnn(C)c1 [Compound 1-20, 6-methyl-N-[(1-methyl-1H-pyrazol-4-yl)methyl]-5-{[(1S,2S)-2-(pyridin-2-yl)cyclopropyl]methoxy} pyrazolo[1,5-a] pyrimidin-7-amine]
0.18	Cc1nc(C)c(CNc2cc(C(=O)NC[C@H]3C[C@@H]3c3ccc4ccccc4n3)nc3ccnn23)s1 [Compound 1-23, 7-((2,4-dimethylthiazol-5-yl)methylamino)-N-(((1S,2S)-2-(quinolin-2-yl)cyclopropyl)methyl) pyrazolo[1,5-a] pyrimidine-5-carboxamide]
1.1	Cc1nc(C)c(CNc2cc(C(=O)NCCc3ccccn3)nc3ccnn23)s1 [Compound 1-25, 7-((2,4-dimethylthiazol-5-yl)methylamino)-N-(2-(pyridin-2-yl)ethyl)pyrazolo [1,5-a] pyrimidine-5-earboxanaide]
76.9	Cc1nc(C)c(CNc2cc(C(C)C[C@@H]3C[C@H]3c3ccccn3)nc3ccnn23)s1 (stereo in doubt) [Compound 1-13, N-[(2,4-dimethyl-1,3-thiazol-5-yl)methyl]-5-{1-[2-(pyridin-2-yl)cyclopropyl]propan-2-yl}pyrazolo[1,5-a] pyrimidin-7-amine]
0.37	COc1ccc(CCCCc2cc(NCc3sc(C)nc3C)n3nccc3n2)nc1 [Compound 1-10, N-[(2,4-dimethyl-1,3-thiazol-5-yl)methyl]-5-[4-(5-methoxy-pyridin-2-yl)butyl]pyrazolo [1,5-a]pyrimidin-7-amine]
0.14	Cc1nc(C)c(CNc2cc(CCC#Cc3ccc4ccccc4n3)nc3ccnn23)s1 [Compound 1-15, N-[(2,4-dimethyl-1,3-thiazol-5-yl)methyl]-5-[4-(quinolin-2-yl)but-3-yn-1-yl]pyrazolo[1,5-a] pyrimidin-7-amine]
0.08	Cc1nnc(CNc2c(F)c(OC[C@H]3C[C@@H]3c3ccccn3)nc3ccnn23)s1 [Compound 1-18, 6-fluoro-N-[(5-methyl-1,3,4-thiadiazol-2-yl)methyl]-5-{[(1S,2S)-2-(pyridin-2-yl)cyclopropyl]methoxy} pyrazolo[1,5-a] pyrimidin-7-amine]
0.11	Cc1ncc(CNc2cc(OC[C@H]3C[C@@H]3c3ccccn3)nc3ccnn23)s1 [Compound 1-4, (S,S)-N-[(2-methyl-1,3-thiazol-5-yl)-methyl]-5-{[2-(pyridin-2-yl)cyclopropyl]methoxy} pyrazolo[1,5-a]pyrimidin-7-amine]
1.3	COc1ccc([C@H]2C[C@@H]2COc2cc(NCc3oc(C)nc3C)n3nccc3n2)nc1 (stereo in doubt) [Compound 1-3, N-[(2,4-dimethyl-1,3-oxazol-5-yl)methyl]-5-{[2-(5-methoxy-pyridin-2-yl)cyclopropyl]-methoxy}pyrazolo [1,5-a]pyrimidin-7-amine]
9.2	Cc1nc(C)c(CNc2cc(C3CC3)nc3ccnn23)s1 [Compound 1-9, 5-cyclopropyl-N-[(2,4-dimethyl-1,3-thiazol-5-yl)methyl]pyrazolo [1,5-a]pyrim-idin-7-amine]
